# Data taken from PubChem BioAssay (NCI).
#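 Test compounds were applied to cells in 96-well plates for 48 hours at 5 doses. GI50 = concentration required for 50% inhibition of growth. At the TGI there is no net growth.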
# Key:
# Experiment in all cases: NCI-60 cell line screen, 48 h
# MDA-MB-231 breast = test system: MDA-MB-231 breast
# PC-3 prostate = test system: PC-3 prostate
# SK-MEL-2 melanoma = test system: SK-MEL-2 melanoma
# MCF7 breast = test system: MCF7 breast
# KM12 colon = test system: KM12 colon
# NCI/ADR-RES ovarian = test system: NCI/ADR-RES ovarian
# M14 melanoma = test system: M14 melanoma
# HCT-15 colon = test system: HCT-15 colon
# HOP-92 NSCLC = test system: HOP-92 NSCLC
# SNB-19 CNS = test system: SNB-19 CNS
# MDA-MB-435 = test system: MDA-MB-435
# HOP-62 NSCLC = test system: HOP-62 NSCLC
# SK-OV-3 ovarian = test system: SK-OV-3 ovarian
# HL-60(TB) leukemia = test system: HL-60(TB) leukemia
# 786-0 renal = test system: 786-0 renal
# HCC-2998 colon = test system: HCC-2998 colon
# UACC-62 melanoma = test system: UACC-62 melanoma
# UACC-257 melanoma = test system: UACC-257 melanoma
# NCI-H460 lung = test system: NCI-H460 lung
# OVCAR-3 ovarian = test system: OVCAR-3 ovarian
# SK-MEL-5 melanoma = test system: SK-MEL-5 melanoma
# K-562 leukemia = test system: K-562 leukemia
# SF-268 CNS = test system: SF-268 CNS
# IGROV1 ovarian = test system: IGROV1 ovarian
# UO-31 renal = test system: UO-31 renal
# ACHN renal = test system: ACHN renal
# NCI-H23 lung = test system: NCI-H23 lung
# HS 578T breast = test system: HS 578T breast
# SR leukemia = test system: SR leukemia
# OVCAR-8 ovarian = test system: OVCAR-8 ovarian
# A498 renal = test system: A498 renal
# SW-620 colon = test system: SW-620 colon
# SF-295 CNS = test system: SF-295 CNS
# SK-MEL-28 melanoma = test system: SK-MEL-28 melanoma
# CCRF-CEM leukemia = test system: CCRF-CEM leukemia
# BT-549 breast = test system: BT-549 breast
# U251 CNS = test system: U251 CNS
# MOLT-4 leukemia = test system: MOLT-4 leukemia
# HCT-116 colon = test system: HCT-116 colon
# DU-145 prostate = test system: DU-145 prostate
# CAKI-1 renal = test system: CAKI-1 renal
# SN12C renal = test system: SN12C renal
# EKVX NSCLC = test system: EKVX NSCLC
# OVCAR-4 ovarian = test system: OVCAR-4 ovarian
# NCI-H226 lung = test system: NCI-H226 lung
# HT29 colon = test system: HT29 colon
# NCI-H522 lung = test system: NCI-H522 lung
# T-47D breast = test system: T-47D breast
# MALME-3M melanoma = test system: MALME-3M melanoma
# SNB-75 CNS = test system: SNB-75 CNS
# RPMI-8226 leukemia = test system: RPMI-8226 leukemia
# LOX IMVI melanoma = test system: LOX IMVI melanoma
# TK-10 renal = test system: TK-10 renal
# COLO 205 colon = test system: COLO 205 colon
# A549 NSCLC = test system: A549 NSCLC
# SF-539 CNS = test system: SF-539 CNS
# OVCAR-5 ovarian = test system: OVCAR-5 ovarian
# RXF 393 renal = test system: RXF 393 renal
structure (smiles),measurement,setting,value
COc1cc(Nc2cc(O)c3c(=O)cc(-c4ccccc4)oc3c2)cc(OC)c1,GI50,MDA-MB-231 breast,964 nM
same,TGI,MDA-MB-231 breast,18400 nM
same,GI50,PC-3 prostate,815 nM
same,TGI,PC-3 prostate,> 52100 nM
same,GI50,SK-MEL-2 melanoma,537 nM
same,TGI,SK-MEL-2 melanoma,40400 nM
same,GI50,MCF7 breast,35.7 nM
same,TGI,MCF7 breast,> 100000 nM
same,GI50,KM12 colon,282 nM
same,TGI,KM12 colon,> 39200 nM
same,GI50,NCI/ADR-RES ovarian,437 nM
same,TGI,NCI/ADR-RES ovarian,25000 nM
same,GI50,M14 melanoma,466 nM
same,TGI,M14 melanoma,> 100000 nM
same,GI50,HCT-15 colon,104 nM
same,TGI,HCT-15 colon,> 100000 nM
same,GI50,HOP-92 NSCLC,944 nM
same,TGI,HOP-92 NSCLC,17700 nM
same,GI50,SNB-19 CNS,533 nM
same,TGI,SNB-19 CNS,22800 nM
same,GI50,MDA-MB-435,147 nM
same,TGI,MDA-MB-435,498 nM
same,GI50,HOP-62 NSCLC,795 nM
same,TGI,HOP-62 NSCLC,20900 nM
same,GI50,SK-OV-3 ovarian,548 nM
same,TGI,SK-OV-3 ovarian,18600 nM
same,GI50,HL-60(TB) leukemia,355 nM
same,GI50,786-0 renal,1340 nM
same,TGI,786-0 renal,21900 nM
same,GI50,HCC-2998 colon,2310 nM
same,TGI,HCC-2998 colon,> 54000 nM
same,GI50,UACC-62 melanoma,387 nM
same,TGI,UACC-62 melanoma,> 37400 nM
same,GI50,UACC-257 melanoma,39100 nM
same,TGI,UACC-257 melanoma,> 100000 nM
same,GI50,NCI-H460 lung,390 nM
same,TGI,NCI-H460 lung,> 35300 nM
same,GI50,OVCAR-3 ovarian,274 nM
same,TGI,OVCAR-3 ovarian,1640 nM
same,GI50,SK-MEL-5 melanoma,169 nM
same,TGI,SK-MEL-5 melanoma,9970 nM
same,GI50,K-562 leukemia,311 nM
same,TGI,K-562 leukemia,> 100000 nM
same,GI50,SF-268 CNS,909 nM
same,TGI,SF-268 CNS,30900 nM
same,GI50,IGROV1 ovarian,409 nM
same,TGI,IGROV1 ovarian,32400 nM
same,GI50,UO-31 renal,763 nM
same,TGI,UO-31 renal,30700 nM
same,GI50,ACHN renal,628 nM
same,TGI,ACHN renal,> 100000 nM
same,GI50,NCI-H23 lung,922 nM
same,TGI,NCI-H23 lung,40000 nM
same,GI50,HS 578T breast,338 nM
same,GI50,SR leukemia,253 nM
same,TGI,SR leukemia,> 100000 nM
same,GI50,OVCAR-8 ovarian,900 nM
same,TGI,OVCAR-8 ovarian,23900 nM
same,GI50,A498 renal,351 nM
same,TGI,A498 renal,9030 nM
same,GI50,SW-620 colon,377 nM
same,TGI,SW-620 colon,> 100000 nM
same,GI50,SF-295 CNS,389 nM
same,TGI,SF-295 CNS,8330 nM
same,GI50,SK-MEL-28 melanoma,2840 nM
same,TGI,SK-MEL-28 melanoma,> 100000 nM
same,GI50,CCRF-CEM leukemia,411 nM
same,TGI,CCRF-CEM leukemia,> 100000 nM
same,GI50,BT-549 breast,651 nM
same,TGI,BT-549 breast,> 52300 nM
same,GI50,U251 CNS,484 nM
same,TGI,U251 CNS,18300 nM
same,GI50,MOLT-4 leukemia,595 nM
same,TGI,MOLT-4 leukemia,> 100000 nM
same,GI50,HCT-116 colon,407 nM
same,TGI,HCT-116 colon,> 100000 nM
same,GI50,DU-145 prostate,476 nM
same,TGI,DU-145 prostate,20900 nM
same,GI50,CAKI-1 renal,335 nM
same,TGI,CAKI-1 renal,16800 nM
same,GI50,SN12C renal,736 nM
same,TGI,SN12C renal,75500 nM
same,GI50,EKVX NSCLC,769 nM
same,TGI,EKVX NSCLC,> 100000 nM
same,GI50,OVCAR-4 ovarian,8610 nM
same,TGI,OVCAR-4 ovarian,41900 nM
same,GI50,NCI-H226 lung,2570 nM
same,TGI,NCI-H226 lung,48000 nM
same,GI50,HT29 colon,3330 nM
same,TGI,HT29 colon,> 36900 nM
same,GI50,NCI-H522 lung,203 nM
same,TGI,NCI-H522 lung,4390 nM
same,GI50,T-47D breast,251 nM
same,TGI,T-47D breast,> 100000 nM
same,GI50,MALME-3M melanoma,754 nM
same,TGI,MALME-3M melanoma,> 100000 nM
same,GI50,SNB-75 CNS,193 nM
same,TGI,SNB-75 CNS,750 nM
same,GI50,RPMI-8226 leukemia,471 nM
same,TGI,RPMI-8226 leukemia,> 100000 nM
same,GI50,LOX IMVI melanoma,581 nM
same,TGI,LOX IMVI melanoma,> 100000 nM
same,GI50,TK-10 renal,4940 nM
same,TGI,TK-10 renal,46600 nM
same,GI50,COLO 205 colon,4680 nM
same,TGI,COLO 205 colon,> 100000 nM
same,GI50,A549 NSCLC,788 nM
same,TGI,A549 NSCLC,97300 nM
same,GI50,SF-539 CNS,338 nM
same,TGI,SF-539 CNS,1930 nM
same,GI50,OVCAR-5 ovarian,1290 nM
same,TGI,OVCAR-5 ovarian,> 47500 nM
same,GI50,RXF 393 renal,329 nM
same,TGI,RXF 393 renal,1830 nM
